# Changes are numbered by the printed parent chain.
# Assays:
# ZAC^L9′V = biological target: T1, ZAC^L9′V (Homo sapiens, UniProt Q401N2, A152T/L270V); assay: TEVC in oocytes, ZAC L9′V mutant; format: cell-based; settings: TC 100 μM; outward currents compared to WT ZAC and ZAC^L9′A
# T1 construct: expressed in transfected cells; host or cells: Xenopus oocytes (cRNA injection, pUNIV vector)
# T1 sequence (Q401N2 26-412 A152T/L270V): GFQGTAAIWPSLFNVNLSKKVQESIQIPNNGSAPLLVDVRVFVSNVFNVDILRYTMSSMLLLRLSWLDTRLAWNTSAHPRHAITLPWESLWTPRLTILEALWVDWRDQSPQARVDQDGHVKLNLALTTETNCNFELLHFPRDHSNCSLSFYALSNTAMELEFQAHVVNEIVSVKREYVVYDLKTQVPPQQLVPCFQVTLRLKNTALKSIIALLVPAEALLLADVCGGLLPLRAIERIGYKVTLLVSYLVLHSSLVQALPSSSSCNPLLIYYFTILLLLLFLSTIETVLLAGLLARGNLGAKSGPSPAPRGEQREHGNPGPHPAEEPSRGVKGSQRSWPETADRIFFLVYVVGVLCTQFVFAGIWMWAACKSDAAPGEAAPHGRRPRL
# Method: (§1) The recordings were performed at room temperature.
# (§2) Analysis of the data from the TEVC recordings were performed using Clampfit software version 10.5 (Molecular Devices, Crawley, UK) and GraphPad Prism version 7.0c (GraphPad Software, La Jolla, CA). Unless otherwise stated, the inward currents induced by agonists in oocytes were normalized to the maximal response elicited by a specific agonist (agonist Imax) on each oocyte. Concentration-response and concentration-inhibition curves were fitted in GraphPad Prism by nonlinear regression using the equation for sigmoidal dose-response with variable slope. Each data point represents the mean ± S.E.M. value of recordings performed on at least five oocytes in total from at least two different batches. For the data where statistical analysis was performed, a one-way ANOVA was used. The null hypothesis was rejected at P < 0.05, and the differences between the means were analyzed by Tukey’s multiple comparisons test.
# WT ZAC = biological target: T2, WT ZAC (Homo sapiens, UniProt Q401N2, A152T); assay: TEVC in Xenopus oocytes expressing WT ZAC; format: cell-based; settings: TC 100 μM
# T2 construct: expressed in transfected cells; host or cells: Xenopus oocytes injected with cRNA (pUNIV vector)
# T2 sequence (Q401N2 26-412 A152T): T1 sequence (Q401N2 26-412 A152T/L270V) with V245L
# Method: as §1, §2
# ZAC^L9′T = biological target: T3, ZAC^L9′T (Homo sapiens, UniProt Q401N2, A152T/L270T); assay: TEVC in oocytes, ZAC L9′T mutant; format: cell-based; settings: TC 100 μM; outward currents compared to WT ZAC and ZAC^L9′A
# T3 construct: expressed in transfected cells; host or cells: Xenopus oocytes (cRNA injection, pUNIV vector)
# T3 sequence (Q401N2 26-412 A152T/L270T): T1 sequence (Q401N2 26-412 A152T/L270V) with V245T
# Method: as §1, §2
# [1] = tested on: ZAC^L9′X mutants (L9′A, L9′V, L9′I, L9′T); assay: TEVC in oocytes, all four L9′X mutants (collective statement); format: cell-based, human; settings: TC 100 μM; 1 mM Zn^2+; range over all four mutants
# Method: as §1, §2
# Fig. 8. Functional importance of the Leu9′ residue in ZAC. […] B. Resting membrane potentials (left) and leak currents (right) recorded from oocytes expressing WT ZAC, ZAC^L9′A, ZAC^L9′T, ZAC^L9′V and ZAC^L9′I. Data are given as mean ± S.E.M. values (n = 40–60). C. […]
# ZAC^L9′A = biological target: T4, ZAC^L9′A (Homo sapiens, UniProt Q401N2, A152T/L270A); assay: TEVC in oocytes, ZAC L9′A mutant; format: cell-based; settings: TC 100 μM
# T4 construct: expressed in transfected cells; host or cells: Xenopus oocytes injected with cRNA (pUNIV vector)
# T4 sequence (Q401N2 26-412 A152T/L270A): T1 sequence (Q401N2 26-412 A152T/L270V) with V245A
# Method: as §1, §2
# ZAC^L9′I = biological target: T5, ZAC^L9′I (Homo sapiens, UniProt Q401N2, A152T/L270I); assay: TEVC in oocytes, ZAC L9′I mutant; format: cell-based; settings: TC 100 μM; outward currents compared to WT ZAC and ZAC^L9′A
# T5 construct: expressed in transfected cells; host or cells: Xenopus oocytes (cRNA injection, pUNIV vector)
# T5 sequence (Q401N2 26-412 A152T/L270I): T1 sequence (Q401N2 26-412 A152T/L270V) with V245I
# Method: as §1, §2
structure (smiles),measurement,setting,value
"COc1cc2c3cc1Oc1cc(ccc1O)C[C@@H]1c4c(cc(OC)c(O)c4Oc4ccc(cc4)C[C@@H]3N(C)CC2)CC[N+]1(C)C [TC, tubocurarine]","I100 μM TC (antagonist-evoked current, spontaneous activity)",ZAC^L9′V,substantially higher amplitudes
same,"I100 μM TC (antagonist-evoked current, spontaneous activity)",WT ZAC,small but significant outward currents
same,"I100 μM TC (antagonist-evoked current, spontaneous activity)",ZAC^L9′T,substantially higher amplitudes
same,I100 μM TC/(IZn2+ max + I100 μM TC) ratio (degree of spontaneous activity),[1],34–40%
same,"I100 μM TC (antagonist-evoked current, spontaneous activity)",ZAC^L9′A,small but significant outward currents
same,"I100 μM TC (antagonist-evoked current, spontaneous activity)",ZAC^L9′I,substantially higher amplitudes

# Source: paper PMC11359809, “Probing the molecular basis for signal transduction through the Zinc-Activated Channel (ZAC)” (Biochemical pharmacology, 2021)
